US20240208912A1 (Mirati Therapeutics, Inc., priority 2021, published 2024)
Read-outs that look alike come from different tables or passages of the source.

What was measured:
PRMT5/MEP50 complex = molecular target: T1, PRMT5/MEP50 complex (Homo sapiens, UniProt O14744); assay: PRMT5:MEP50 HotSpot Assay (full-length histone H2A substrate, plus and minus MTA); assay type: biochemical; conditions: IC50 + 2 μM MTA, in the presence of 2 μM MTA
T1 construct: purchased Reaction Biology Corporation
Procedure: The PRMT5 inhibitory activity of compounds of the present invention was determined using either a PRMT5:MEP50 FlashPlate Assay (Reaction Biology Corporation) or a PRMT5:MEP50 HotSpot Assay (Reaction Biology Corporation).
The assay uses recombinant full-length hi stone H2A as the PRMT5 substrate. […] The reaction was stopped and transferred to filter paper for detection. The amount of tritiated H2A in each sample was determined using a scintillation counter.

[1] = system: HCT116 homozygous MTAP knockout cells; assay: Proliferation assay (CellTiter-Glo, 10 days) in HCT116 homozygous MTAP knockout cells; assay type: cell-based; conditions: CellTiter-Glo after 10 days of treatment, read-out: Proliferation IC50 (nM) HCT116 MTAP_KO
Procedure: HCT116 cells were genetically engineered to knock out the function of both MTAP alleles using a CRISPR/Cas9 system and an sgRNA targeting the MTAP gene. Following Cas9/MTAP sgRNA transduction, clones were screened to confirm that each allele of the MTAP gene had been inactivated (i.e., homozygous MTAP knock out) creating an MTAP-deficient cell.
Control samples were analyzed in parallel.
Briefly, on Day 0, 250 HCT116 parental or HCT116 homozygous MTAP knockout cell were seeded in 96 well plates in McCoy's 5A supplemented with […] fetal bovine serum and pen/strep and the cells were incubated overnight at 37° C. plus 5% CO2.
The following day, cells were treated with DMSO vehicle control or a dose response of PRMT5 inhibitors and incubated at 37 C plus 5% CO2 for five days. On Day 6, the cells were trypsinized and split 1:10 into new 96-well plates with fresh medium containing the same concentration of PRMT5 inhibitor and incubated for an additional 5 days at 37° C. plus 5% CO^2.
On Day 11, the viability of the cells was measured using a CTG assay kit (CellTiter-Glo; Promega cat.no G7573) in accordance with the manufacturer's instructions. The IC50 values for each compound after 10 days of treatment were calculated using GraphPad PRISM software.

T1 sequence (O14744 2-637 limits assumed): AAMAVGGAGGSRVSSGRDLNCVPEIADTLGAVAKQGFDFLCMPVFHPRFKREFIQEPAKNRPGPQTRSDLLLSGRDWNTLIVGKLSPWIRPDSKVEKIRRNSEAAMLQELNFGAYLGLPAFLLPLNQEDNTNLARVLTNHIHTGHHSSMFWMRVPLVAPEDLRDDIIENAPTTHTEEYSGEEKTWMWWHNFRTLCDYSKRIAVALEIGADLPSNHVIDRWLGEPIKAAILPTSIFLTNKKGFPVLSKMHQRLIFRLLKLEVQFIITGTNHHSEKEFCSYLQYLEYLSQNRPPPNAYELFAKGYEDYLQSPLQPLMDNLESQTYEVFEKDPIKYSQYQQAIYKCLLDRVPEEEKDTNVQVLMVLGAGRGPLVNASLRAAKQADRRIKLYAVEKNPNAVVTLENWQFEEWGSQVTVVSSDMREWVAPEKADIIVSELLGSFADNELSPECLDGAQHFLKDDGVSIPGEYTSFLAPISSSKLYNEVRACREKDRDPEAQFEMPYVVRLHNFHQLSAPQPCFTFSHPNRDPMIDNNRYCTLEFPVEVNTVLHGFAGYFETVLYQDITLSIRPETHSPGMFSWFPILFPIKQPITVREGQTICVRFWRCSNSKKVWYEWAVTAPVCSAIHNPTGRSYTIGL
T1 sequence (Q9BQA1 2-342 partner limits assumed): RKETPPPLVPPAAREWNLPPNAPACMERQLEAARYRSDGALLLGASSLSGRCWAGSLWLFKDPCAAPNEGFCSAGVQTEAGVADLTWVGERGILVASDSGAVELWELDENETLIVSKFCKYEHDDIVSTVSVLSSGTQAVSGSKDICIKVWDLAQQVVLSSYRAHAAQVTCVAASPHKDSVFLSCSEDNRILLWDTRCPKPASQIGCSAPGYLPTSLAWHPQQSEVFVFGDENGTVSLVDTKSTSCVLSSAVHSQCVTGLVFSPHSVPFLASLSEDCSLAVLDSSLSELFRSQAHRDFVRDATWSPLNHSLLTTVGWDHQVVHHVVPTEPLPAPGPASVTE

Row | Compound | IC50 (PRMT5/MEP50 complex) [nM] | IC50 ([1]; Homo sapiens, HCT-116, 240 h) [nM] | IC50 [1] [nM]
1 | Cc1cnc2cc(F)c(-c3c(-c4ccc5c(=O)[nH]nc(CN)c5c4)cnn3C)c(C#N)c2c1 (atropisomer, axis not shown; (M)) [Example 16-35, (M)-6-[4-[4-(aminomethyl)-1-oxo-2H-phthalazin-6-yl]-2-methyl-pyrazol-3-yl]-7-fluoro-3-methyl-quinoline-5-carbonitrile] | 84 | 5 | 
2 | Cn1ncc(-c2ccc3c(=O)[nH]nc(CN)c3c2)c1-c1c(F)cc2c(c1C#N)OCCC2 (atropisomer, axis not shown; (M)) [Example 16-38, (M)-7-[4-[4-(aminomethyl)-1-oxo-2H-phthalazin-6-yl]-2-methyl-pyrazol-3-yl]-6-fluoro-chromane-8-carbonitrile] | 83.8 |  | 39
3 | C[C@@H]1C[C@H]1Oc1ccc(F)c(-c2c(-c3ccc4c(=O)[nH]nc(CN)c4c3)cnn2C)c1C#N (atropisomer, axis not shown; (M)) [Example 16-66, (M)-2-(4-(4-(aminomethyl)-1-oxo-1,2-dihydrophthalazin-6-yl)-1-methyl-1H-pyrazol-5-yl)-3-fluoro-6-((1R,2R)-2-methylcyclopropoxy)benzonitrile] | 107 |  | 35
4 | COc1cc(F)c(-c2c(-c3ccc4c(=O)[nH]nc(CN)c4c3)cnn2C)c(C#N)c1OC1CC1 (atropisomer, axis not shown; (M)) [Example 16-71, (M)-2-[4-[4-(aminomethyl)-1-oxo-2H-phthalazin-6-yl]-2-methyl-pyrazol-3-yl]-6-(cyclopropoxy)-3-fluoro-5-methoxy-benzonitrile] | 142 |  | 50
5 | CCOc1cc(-c2cnn(C)c2-c2c(F)ccc(OC3CC3)c2C#N)cc2c(CN)n[nH]c(=O)c12 (atropisomer, axis not shown; (M)) [Example 16-74, (M)-2-[4-[4-(aminomethyl)-8-ethoxy-1-oxo-2H-phthalazin-6-yl]-2-methyl-pyrazol-3-yl]-6-(cyclopropoxy)-3-fluoro-benzonitrile] | 346 |  | 158
6 | Cn1ncc(-c2ccc3c(=O)[nH]nc(CN)c3c2)c1-c1c(F)cc2c(c1C#N)OCCC2 (atropisomer, axis not shown; (P)) [Example 16-37, (P)-7-[4-[4-(aminomethyl)-1-oxo-2H-phthalazin-6-yl]-2-methyl-pyrazol-3-yl]-6-fluoro-chromane-8-carbonitrile] | 102 |  | 216
7 | C[C@@H]1C[C@H]1Oc1ccc(F)c(-c2c(-c3ccc4c(=O)[nH]nc(CN)c4c3)cnn2C)c1C#N (atropisomer, axis not shown; (P)) [Example 16-65, (P)-2-(4-(4-(aminomethyl)-1-oxo-1,2-dihydrophthalazin-6-yl)-1-methyl-1H-pyrazol-5-yl)-3-fluoro-6-((1R,2R)-2-methylcyclopropoxy)benzonitrile] | 204 |  | 187
8 | COc1cc(F)c(-c2c(-c3ccc4c(=O)[nH]nc(CN)c4c3)cnn2C)c(C#N)c1OC1CC1 (atropisomer, axis not shown; (P)) [Example 16-72, (P)-2-[4-[4-(aminomethyl)-1-oxo-2H-phthalazin-6-yl]-2-methyl-pyrazol-3-yl]-6-(cyclopropoxy)-3-fluoro-5-methoxy-benzonitrile] | 113 |  | 461
9 | CCOc1cc(-c2cnn(C)c2-c2c(F)ccc(OC3CC3)c2C#N)cc2c(CN)n[nH]c(=O)c12 (atropisomer, axis not shown; (P)) [Example 16-73, (P)-2-[4-[4-(aminomethyl)-8-ethoxy-1-oxo-2H-phthalazin-6-yl]-2-methyl-pyrazol-3-yl]-6-(cyclopropoxy)-3-fluoro-benzonitrile] | 909 |  | 1070
10 | Cn1ncc(-c2ccc3c(=O)[nH]nc(CN)c3c2)c1-c1c(C#N)cc2cccnc2c1Cl (atropisomer, axis not shown; (P)) [Example 16-83, (P)-7-(4-(4-(aminomethyl)-1-oxo-1,2-dihydrophthalazin-6-yl)-1-methyl-1H-pyrazol-5-yl)-8-chloroquinoline-6-carbonitrile] | 446 |  | 1690
11 | Cn1ncc(-c2cc(Cl)c3c(=O)[nH]nc(CN)c3c2)c1-c1c(F)cc2ccccc2c1C#N (single isomer, unassigned) [Example 16-11, (P)-2-(4-(4-(aminomethyl)-8-chloro-1-oxo-1,2-dihydrophthalazin-6-yl)-1-methyl-1H-pyrazol-5-yl)-3-fluoro-1-naphthonitrile] | 102 |  | 5
12 | Cn1ncc(-c2ccc3c(=O)[nH]nc(CN)c3c2)c1-c1cc2ccccn2c1C#N [Example 4-227, 2-(4-(4-(aminomethyl)-1-oxo-1,2-dihydrophthalazin-6-yl)-1-methyl-1H-pyrazol-5-yl)indolizine-3-carbonitrile] |  |  | 2370
13 | Cn1ncc(-c2ccc3c(=O)[nH]nc(CN)c3c2)c1-c1cc(Cl)c2c(c1C#N)OCCC2 [Example 4-261, 7-[4-[4-(aminomethyl)-1-oxo-2H-phthalazin-6-yl]-2-methyl-pyrazol-3-yl]-5-chloro-chromane-8-carbonitrile] |  | 81 | 
14 | COCc1ccc2c(C#N)c(-c3c(-c4ccc5c(=O)[nH]nc(CN)c5c4)cnn3C)sc2c1 [Example 4-271, 2-(4-(4-(aminomethyl)-1-oxo-1,2-dihydrophthalazin-6-yl)-1-methyl-1H-pyrazol-5-yl)-6-(methoxymethyl)benzo[b]thiophene-3-carbonitrile] |  | 289 | 
15 | Cn1ncc(-c2ccc3c(=O)[nH]nc(CN)c3c2)c1-c1sc2cccnc2c1C#N [Example 4-275, 2-(4-(4-(aminomethyl)-1-oxo-1,2-dihydrophthalazin-6-yl)-1-methyl-1H-pyrazol-5-yl)thieno[3,2-b]pyridine-3-carbonitrile] |  | 1880 | 
16 | Cn1ncc(-c2ccc3c(=O)[nH]nc(C4(N)COC4)c3c2)c1-c1sc2ccccc2c1C#N [Example 9-9, 2-(4-(4-(3-aminooxetan-3-yl)-1-oxo-1,2-dihydrophthalazin-6-yl)-1-methyl-1H-pyrazol-5-yl)benzo[b]thiophene-3-carbonitrile] |  | 10000 | 

More lines, now with the values ahead:

Row | IC50 (PRMT5/MEP50 complex) [nM] | IC50 ([1]; Homo sapiens, HCT-116, 240 h) [nM] | IC50 [1] [nM] | Compound
17 | 181 |  | 173 | Cn1ncc(-c2ccc3c(=O)[nH]nc(CN)c3c2)c1-c1c(F)cc2c(c1C#N)OCO2 (atropisomer, axis not shown; (M)) [Example 16-88, (M)-5-[4-[4-(aminomethyl)-1-oxo-2H-phthalazin-6-yl]-2-methyl-pyrazol-3-yl]-6-fluoro-1,3-benzodioxole-4-carbonitrile]
18 | 1140 |  | 231 | Cc1cnc2c(C#N)c(-c3c(-c4ccc5c(=O)[nH]nc(CN)c5c4)cnn3C)c(F)c(C)c2c1 (atropisomer, axis not shown; (M)) [Example 16-94, (M)-7-(4-(4-(aminomethyl)-1-oxo-1,2-dihydrophthalazin-6-yl)-1-methyl-1H-pyrazol-5-yl)-6-fluoro-3,5-dimethylquinoline-8-carbonitrile]
19 |  | 158 |  | Cn1ncc(-c2ccc3c(=O)[nH]nc(CN)c3c2)c1-c1c(F)cc2c(c1C#N)OCO2 (atropisomer, axis not shown; (P)) [Example 16-87, (P)-5-[4-[4-(aminomethyl)-1-oxo-2H-phthalazin-6-yl]-2-methyl-pyrazol-3-yl]-6-fluoro-1,3-benzodioxole-4-carbonitrile]
20 | 821 |  | 3290 | Cc1cnc2c(C#N)c(-c3c(-c4ccc5c(=O)[nH]nc(CN)c5c4)cnn3C)c(F)c(C)c2c1 (atropisomer, axis not shown; (P)) [Example 16-93, (P)-7-(4-(4-(aminomethyl)-1-oxo-1,2-dihydrophthalazin-6-yl)-1-methyl-1H-pyrazol-5-yl)-6-fluoro-3,5-dimethylquinoline-8-carbonitrile]
21 | > 1000 | 1860 |  | Cc1c(F)c(-c2c(-c3cc(Cl)c4c(=O)[nH]nc(CN)c4c3)cnn2C)c(C#N)c2ncc(Cl)cc12 (atropisomer, axis not shown; (P)) [Example 16-97, (P)-7-(4-(4-(aminomethyl)-8-chloro-1-oxo-1,2-dihydrophthalazin-6-yl)-1-methyl-1H-pyrazol-5-yl)-3-chloro-6-fluoro-5-methylquinoline-8-carbonitrile]
22 |  |  | 3450 | Cn1ncc(-c2ccc3c(=O)[nH]nc(CN)c3c2)c1-c1cccc2c1COCC2(C)O (atropisomer, axis not shown; (P)) [Example 16-104, (P)-4-(aminomethyl)-6-(5-(4-hydroxy-4-methylisochroman-8-yl)-1-methyl-1H-pyrazol-4-yl)phthalazin-1(21)-one]
23 |  | 278 |  | Cn1ncc(-c2ccc3c(=O)[nH]nc(CN)c3n2)c1-c1sc2ccccc2c1C#N [Example 17-3, 2-[4-[8-(aminomethyl)-5-oxo-6H-pyrido[2,3-d]pyridazin-2-yl]-2-methyl-pyrazol-3-yl]benzothiophene-3-carbonitrile]
